According to paper PMC7851395 (British Journal of Cancer, 2020):

Experiments:
PC-9 cells [1] = assay: MTT cytotoxicity assay, PC-9 cells; assay type: cell-based; details: Homo sapiens, PC-9, 48 h, PC-9 cells, 48 h, MTT; read-out: IC50
Protocol: (§1) The cytotoxicity and viability of human NSCLC cells and normal cells were determined by MTT assay. MTT assay was performed as described previously.[22] MTT assay was used to determine the cell cytotoxicity and viability in human NSCLC cells. Cells (5 × 10^3 cells/well) were plated in 96-well plates and attached overnight. After the proper treatment, the MTT solution was added at 25 µL/well and incubated at 37 °C for 4 h. The formazan crystals were dissolved in 150 µL of DMSO, and the optical density (OD) was measured using a Microplate Reader at 490 nm. The cell viability was calculated by the following formula: viability = (average OD values of treatment wells/average OD values of vehicle control wells) × 100%. And half-maximal inhibitory concentration (IC50) values were determined by GraphPad Pro Prism 7.0.

[2] = tested on: human umbilical vein endothelial cell HUVEC; assay: MTT cytotoxicity assay, normal HUVEC cells; assay type: cell-based
Protocol: as §1

[3] = tested on: normal lung cells BEAS-2B; assay: MTT cytotoxicity assay, normal lung cells BEAS-2B; assay type: cell-based, human
Protocol: as §1

human NSCLC cells = assay: Colony-formation assay; assay type: cell-based; details: 50, 100, 200 nM for 24 h, colonies after 7 days
Protocol: The human NSCLC cells and normal cells were seeded at 1000 cells/well on six-well plates, placed in 5% CO2 atmosphere and cultured overnight at 37 °C. DMSO (Control) and acetyl-bufalin (50, 100, 200 nM) were added to the cells for 24 h. The fresh medium was replaced every 2 days to maintain the growth of cells for 7 days. Colonies were washed with phosphate-buffered saline (PBS), fixed with 4% paraformaldehyde at room temperature for 15 min, washed with purified water for three times and stained with Crystal violet for 10 min. Each experiment was in triplicate, and three independent experiments were carried out.

PC-9 cells [4] = assay: Wound-healing migration assay; assay type: cell-based, human; details: 25, 50, 100 nM, 48 h
Protocol: The ability of cell migration was evaluated by wound-healing assay. The cells grew to 80–90% confluence in six-well plates and then scraped the cell monolayer at the centre of the wells with the tip of a sterile 10 μL pipette to form a clean, straight wound area. Then, the wells were washed with PBS to remove detached cells from the plates. After that, cells were cultured in serum-free RPMI medium with vehicle control or acetyl-bufalin (25, 50, 100 nM). The migration of cells to the wound area was photographed at the 0, 24 and 48 h timepoints with a microscope and imaging system (Leica, Wetzlar, Germany).

NIH mice = assay: Acute toxicity test; assay type: in vivo
Protocol: In the acute toxicity test, 30 NIH mice (female, 8 weeks old) were randomly divided into three groups (n = 10), including vehicle group, bufalin group (30 mg/kg) and acetyl-bufalin group (30 mg/kg). The three groups received intraperitoneal injection only on the first day. All the mice were housed under 12 h light–dark cycles at 25 °C and free for water and diet. […] All the mice were sacrificed by cervical dislocation.

[5] = Pharmacokinetic study in rat plasma (LC-MS/MS); assay type: in vivo, S.D. rats
Protocol: For the pharmacokinetic study, female S.D. rats (body weight 200 ± 10 g) have fasted overnight with free access to water before the experiment. Twelve rats were randomly divided into four groups. The time schedule included eight timepoints, and three S.D. rats were sampled at each time-point. Bufalin and acetyl-bufalin were administered intravenously and intraperitoneally to the rats at the dose of 0.25 mg/kg and 2 mg/kg, respectively. The animals had free access to water during the experiment. Blood samples were collected from the retro-orbital plexus of each rat at 0.083, 0.25, 0.5, 1, 2, 4, 6, 8, 12, 24 h after administration. Plasma was separated from the blood after centrifugation at 6000×g for 10 min and frozen at −20 °C until analysis. In total, 20 µL of standard samples in duplicate, quality control samples in duplicate and rat plasma samples were mixed with 60 µL of ethyl acetate containing IS (200 ng/mL of tolbutamide, 50 ng/mL of propranolol and 500 ng/mL of Dic) in EP tubes. After the mixture was vortexed for 1 min, then centrifuged for 10 min (13,000 rpm, 4 °C), transferred 50 µL supernatant to a 96-well plate with 150 µL purred water, shacked for 10 min and finally injected 5 µL into liquid chromatographic-tandem mass spectrometry (LC-MS/MS) system for analysis.

caspase-3 = assay: Caspase-3 activity assay; assay type: cell-based; details: human NSCLC cells (H460, PC-9), 24 h
Protocol: The caspase-3 assay was performed as described previously.[23] According to the manufacturer’s protocol, the activity of caspase‐3 was evaluated by using a caspase‐3 colorimetric assay kit (Abcam, Cambridge, UK). H460 and PC-9 cells were collected and resuspended in lysis buffer. After incubation on ice for 10 min, the cell lysate was centrifuged at 12,000 rpm for 10 min at 4 °C, and the protein concentration in the supernatants was measured using the Bradford dye method. The supernatants were incubated with a reaction buffer containing 200 µM devd-p-nitroanilide, for caspase‐3 in a caspase assay buffer at 37 °C with 10 mM dithiothreitol for 2 h. The activity of caspase-3 was determined by measuring the absorbance at 405 nm. Each experiment was done in triplicate for three independent experiments.

STAT3 = STAT3 luciferase-report assay; assay type: cell-based, human; details: PC-9 and H460 cells, 0-200 nM, 12 h
Protocol: STAT3 activation was detected by the STAT3 luciferase reporter plasmid (PGLSTAT3-LUC), as was previously described.[23] Simply put, PC-9 and H460 cells were seeded in 24-well plates and incubated for 24 h before transfection. The cells were grown to different densities and co-transfected with pGLSTAT3-Luc and pRL-TK (a plasmid encoding Renilla luciferase) for 6 h using Lipofectamine 3000 (Invitrogen, Carlsbad, CA, USA). Finally, the cells were treated with different concentrations of […] for 12 h. Luciferase activity was assessed by SpectraMax ID3 (Molecular Devices, San Jose, CA, USA). The inhibition of STAT3 activity by acetyl-bufalin was calculated as the ratio between the value of firefly and Renilla luciferase activity. Each experiment was done in triplicate in three independent experiments.

H460 and PC-9 cells = assay: Cell proliferation in cells transfected with CDK9 siRNA or control siRNA; assay type: cell-based, human
Protocol: as §1
The siRNA targeting human CDK9 was purchased from Genepharma (Shanghai, China) with the following sequence: siCDK9-1: 5′-[…] TT-3′, siCDK9-2: 5′-[…]-3′, siCDK9-3: 5′-[…]-3′. Cells were transfected with 50 nM siRNA using Lipofectamine 3000 (Invitrogen, CA, USA) for 48 h.

Q: What does the source list for CC(=O)OC1CCC2(C)C(CCC3C2CCC2(C)C(c4ccc(=O)oc4)CCC32O)C1 (stereo not shown) [acetyl-bufalin]?
A: IC50 (PC-9 cells [1]): 64 nM; cytotoxic effect on normal cells [2]: low toxicity; cytotoxic effect on normal cells [3]: low toxicity; NSCLC cell cloning ability (human NSCLC cells): inhibited dose-dependently; PC-9 cell migration (PC-9 cells [4]): markedly blocked; weight of the remaining mice (NIH mice; 30 mg/kg single i.p., 14 days, compared with vehicle): stable; mortality (mice died) (NIH mice; 30 mg/kg single intraperitoneal injection, observed 14 days, n = 10): 2/10; elimination in blood ([5]; 0.25 mg/kg i.v. and 2 mg/kg i.p.): much slower than bufalin; Cmax ([5]; acetyl-bufalin and bufalin formed from it, compared with bufalin dosing): smaller; BAX expression and caspase-3 activity (caspase-3): dose-dependently increased; P-STAT3 activation (luciferase reporter) (STAT3): significantly inhibited; cell proliferation of siCDK9 cells (H460 and PC-9 cells; H460 and PC-9 transfected with CDK9 siRNA1, 48 h): did not significantly affect; cell proliferation of control siRNA cells (H460 and PC-9 cells; H460 and PC-9 transfected with control siRNA, 48 h): hampered cell proliferation
